# Experimental data as given in patent US9605004B2, “Chemical compounds” (SYNGENTA LIMITED, priority 2013, dated 2017).
# Tests used:
# [1] = test system: a variety of test species; test: Pre-emergence herbicidal activity (Example 8a, Table 2); assay type: in vivo; parameters: key: 0 = no damage to plant, 5 = total damage to plant; conditions: application pre-emergence, rate 1000 g/ha, evaluated after 13 days
# Method: Seeds of a variety of test species were sown in standard soil in pots. After cultivation for one day (pre-emergence) under controlled conditions in a glasshouse (at 24/16° C., day/night; 14 hours light; 65% humidity), the plants were sprayed with an aqueous spray solution derived from the formulation of the technical active ingredient in acetone/water (50:50) solution containing 0.5% Tween 20 (polyoxyethelyene sorbitan monolaurate, CAS RN 9005-64-5). The test plants were then grown in a glasshouse under controlled conditions (at 24/16° C., day/night; 14 hours light; 65% humidity) and watered twice daily. After 13 days, the test was evaluated (5=total damage to plant; 0=no damage to plant).
# [2] = test system: a variety of test species; test: Post-emergence herbicidal activity (Example 8b, Table 3); assay type: in vivo; conditions: application post-emergence, rate 1000 g/ha, evaluated after 13 days, scale 0-5; for Herbicidal damage score, ABUTH: Abutilon theophrasti; for Herbicidal damage score, ALOMY: Alopecurus myosuroides; for Herbicidal damage score, AMARE: Amaranthus retroflexus; for Herbicidal damage score, ECHCG: Echinochloa crus-galli; for Herbicidal damage score, SETFA: Setaria faberi; for Herbicidal damage score, ZEAMX: Zea mays
# Method: Seeds of a variety of test species were sown in standard soil in pots. After 8 days cultivation (post-emergence) under controlled conditions in a glasshouse (at 24/16° C., day/night; 14 hours light; 65% humidity), the plants were sprayed with an aqueous spray solution derived from the formulation of the technical active ingredient in acetone/water (50:50) solution containing 0.5% Tween 20 (polyoxyethelyene sorbitan monolaurate, CAS RN 9005-64-5). The test plants were then grown in a glasshouse under controlled conditions (at 24/16° C., day/night; 14 hours light; 65% humidity) and watered twice daily. After 13 days, the test was evaluated (5=total damage to plant; 0=no damage to plant).
Compound,"Pre-emergence herbicidal activity, damage score ABUTH [1]","Pre-emergence herbicidal activity, damage score ALOMY [1]","Pre-emergence herbicidal activity, damage score AMARE [1]","Pre-emergence herbicidal activity, damage score ECHCG [1]","Pre-emergence herbicidal activity, damage score SETFA [1]","Pre-emergence herbicidal activity, damage score ZEAMX [1]","Herbicidal damage score, ABUTH [2]","Herbicidal damage score, ALOMY [2]","Herbicidal damage score, AMARE [2]","Herbicidal damage score, ECHCG [2]","Herbicidal damage score, SETFA [2]","Herbicidal damage score, ZEAMX [2]"
CC1=C(Cl)C(=O)N(c2cc(C(C)C)[nH]n2)C1O (stereo not drawn) [Compound A3],5,3,5,5,5,1,5,5,5,5,5,5
CC1=C(Cl)C(=O)N(c2cc(C3CC3)[nH]n2)C1O (stereo not drawn) [Compound A4],5,4,5,5,5,2,5,5,5,5,5,5
CC1=C(Cl)C(=O)N(c2cc(C)[nH]n2)C1O (stereo not drawn) [Compound A5],5,3,5,5,4,2,5,4,3,5,5,3
CC1=C(Cl)C(=O)N(c2cc(C(F)(F)C(F)(F)F)[nH]n2)C1O (stereo not drawn) [Compound A6],5,3,5,4,4,1,5,5,5,5,4,4
CCC(C)(CC)c1cc(N2C(=O)C(Cl)=C(C)C2O)n[nH]1 (stereo not drawn) [Compound A7],5,3,5,5,5,3,5,5,5,5,5,5
CC1=C(Cl)C(=O)N(c2cc(C)n(C)n2)C1O (stereo not drawn) [Compound B1],5,3,5,4,4,3,5,4,5,5,5,5
CC1=C(Cl)C(=O)N(c2cc(C(C)(C)C)n(C)n2)C1O (stereo not drawn) [Compound B2],5,4,5,5,5,2,5,5,5,5,5,5
CC1=C(Cl)C(=O)N(c2cc(C(F)(F)F)n(C)n2)C1O (stereo not drawn) [Compound B3],5,4,4,5,4,2,5,5,5,5,5,4
CC1=C(Cl)C(=O)N(c2cc(C(F)(F)C(F)(F)F)n(C)n2)C1O (stereo not drawn) [Compound B4],5,4,5,5,5,2,5,5,5,5,5,3
CC1=C(Cl)C(=O)N(c2cc(C(C)C)n(C)n2)C1O (stereo not drawn) [Compound B5],5,3,5,5,4,2,5,4,5,5,4,5
"C=CCC(C)(C)c1cc(N2C(=O)C(Cl)=C(C)C2O)nn1C (stereo not drawn) [Compound B6, 4-chloro-1-[5-(1,1-dimethylbut-3-enyl)-1-methyl-pyrazol-3-yl]-2-hydroxy-3-methyl-2H-pyrrol-5-one]",5,4,5,4,5,4,5,5,5,5,5,4
"CC(C)=Cc1cc(N2C(=O)C(Cl)=C(C)C2O)nn1C (stereo not drawn) [Compound B7, 4-chloro-2-hydroxy-3-methyl-1-[1-methyl-5-(2-methylprop-1-enyl)pyrazol-3-yl]-2H-pyrrol-5-one]",4,2,4,4,4,2,5,4,5,5,5,2
"CC1=C(Cl)C(=O)N(c2cc(I)n(C)n2)C1O (stereo not drawn) [Compound B8, 4-chloro-2-hydroxy-1-(5-iodo-1-methyl-pyrazol-3-yl)-3-methyl-2H-pyrrol-5-one]",4,4,5,4,5,3,5,5,5,5,5,4
CC1=C(Cl)C(=O)N(c2cc(Cl)n(C)n2)C1O (stereo not drawn) [Compound B9],4,3,5,4,5,2,5,5,5,5,5,5
